Laboratory results as given in PMC5978685, “Design, Synthesis, and Evaluation of Novel Immunomodulatory Small Molecules Targeting the CD40–CD154 Costimulatory Protein-Protein Interaction” (Molecules : A Journal of Synthetic Chemistry and Natural …, 2018).

What was measured:
BAFFR–BAFF = target: T1, BAFFR–BAFF (Homo sapiens, UniProt Q9Y275); test: cell-free ELISA-type binding inhibition assay, BAFFR–BAFF
T1 construct: purchased Enzo Life Sciences
Experimental: (§1) In parallel with the CD40–CD154 assay, the ability of these compounds to inhibit other TNFSFR–TNFSF PPIs, including OX40–OX40L, BAFFR–BAFF, and TNF-R1–TNF-α, was also assessed (Figure 3B–D).
(§2) Binding inhibition assays were performed in a 96-well cell-free format as described before. Briefly, microtiter plates (Nunc F Maxisorp, 96-well; Thermo Fisher Scientific, Waltham, MA, USA) were coated overnight at 4 °C with 100 μL/well of Fc-conjugated receptors diluted in PBS pH 7.2. This was followed by blocking with 200 μL/well of blocking solution (PBS pH 7.2, 0.05% Tween-20, 1% BSA) for 1 h at RT. Then, plates were washed twice using washing solution (PBS pH 7.4, 0.05% Tween-20) and tapped dry before the addition of the appropriate FLAG tagged ligands along with different concentrations of tested dyes diluted in binding buffer (100 mM HEPES, 0.005% BSA pH 7.2) to give a total volume of 100 μL/well. After 1 h incubation, three washes were conducted, and anti-FLAG HRP conjugate was used to detect the bound FLAG-tagged ligand. Plates were washed four times before the addition of 120 μL/well of HRP substrate TMB (3,3′,5,5′-tetramethylbenzidine) and kept in the dark for up to 15 min. The reaction was stopped using 30 μL of 1M H2SO4, and the absorbance value was read at 450 nm. The concentrations of receptors used were 0.3 μg/mL for CD40, TNF-R1, and BAFFR; 0.6 μg/mL for OX40. The concentrations of the ligands were fixed at 0.02 μg/mL for CD154 and TNF-α, 0.06 μg/mL for OX40L, and 0.03 μg/mL for BAFF. These values were selected following preliminary testing to optimize response (i.e., to produce a high-enough signal at conditions close to half-maximal response, EC50). […] To verify that inhibition is not due to colloidal aggregation, CD40 binding inhibition was also measured in the presence of the non-ionic detergent Triton-X 100 (0.01%), as recommended for the detection of such effects.
(§3) All binding inhibition and cell assays were tested in duplicate or triplicate per plates, and assays were performed as at least three independent experiments. As before, binding and cytotoxicity data were converted to percent inhibition and fitted with standard log inhibitor vs. normalized response models using nonlinear regression in GraphPad Prism (GraphPad, La Jolla, CA, USA) to establish half-maximal (median) inhibitory concentration (IC50) or median lethal concentration (LC50) values. Cell assay data were fitted with a similar model that also allowed for a variable slope using the log inhibitor vs. normalized response (variable slope) model from Prism with a Hill slope (n) shared across all compounds. Cell assays and draining lymph node data were analyzed by one-way repeated-measures analysis of variance (ANOVA) followed by Dunnett’s multiple comparison test as a post hoc test for individual differences using GraphPad Prism and a significance level of p < 0.05 for all comparisons.
(§4) Data are (counterclockwise) for human CD40–CD154 (CD40L) (A); OX40–OX40L (B); BAFFR–BAFF (C); and TNF-R1–TNFα (D) and were fitted with standard binding curves. Data are average ± SD (normalized to percent binding) for n = 3 independent experiments with duplicates for each condition.

OX40–OX40L = target: T2, OX40–OX40L (Homo sapiens, UniProt P23510); test: cell-free ELISA-type binding inhibition assay, OX40–OX40L
T2 construct: purchased Enzo Life Sciences
T2 sequence (P23510 51-183 limits assumed): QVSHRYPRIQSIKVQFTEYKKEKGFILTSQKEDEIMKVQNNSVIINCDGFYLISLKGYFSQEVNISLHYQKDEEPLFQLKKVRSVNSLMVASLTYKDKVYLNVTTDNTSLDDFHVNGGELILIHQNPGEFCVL
Experimental: as §1, §2, §3, §4

CD40–CD154 (CD40L) = target: T3, CD40–CD154 (CD40L) (Homo sapiens, UniProt P29965); test: cell-free ELISA-type binding inhibition assay, CD40–CD154; details: cell-free CD40–CD154 binding inhibition; read-out: CD40 IC50
T3 construct: purchased Enzo Life Sciences
T3 sequence (P29965 116-261 limits assumed): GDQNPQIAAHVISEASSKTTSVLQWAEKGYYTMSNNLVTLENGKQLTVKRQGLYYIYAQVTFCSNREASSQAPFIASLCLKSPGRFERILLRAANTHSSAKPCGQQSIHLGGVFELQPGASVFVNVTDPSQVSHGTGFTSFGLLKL
Source text: As a first assessment, the CD40–CD154 inhibitory activity of compounds 6–19 (Figure 2, Table 1) was quantified using a cell-free in vitro binding inhibition assay as described before. Data fitted with typical sigmoidal concentration dependence curves (log inhibitor versus response model in GraphPad Prism, Hill slope n = 1) are summarized in Figure 3A. […] Polymolecular conglomeration and/or aggregation is often a cause of promiscuous inhibition in screening assays. Therefore, just as in our previous work, we checked for this, and we confirmed for several compounds that inhibition due to aggregation is not the case by retesting inhibitory activity in the presence of a non-ionic detergent (Triton-X 100, 0.01%) as recommended for the detection of such effects.
as §2, §3, §4

TNF-R1–TNFα = target: T4, TNF-R1–TNFα (Homo sapiens, UniProt P01375); test: cell-free ELISA-type binding inhibition assay, TNF-R1–TNFα; details: cell-free TNF-R1–TNFα binding inhibition; read-out: TNF IC50
T4 construct: purchased Enzo Life Sciences
T4 sequence (P01375 85-233 limits assumed): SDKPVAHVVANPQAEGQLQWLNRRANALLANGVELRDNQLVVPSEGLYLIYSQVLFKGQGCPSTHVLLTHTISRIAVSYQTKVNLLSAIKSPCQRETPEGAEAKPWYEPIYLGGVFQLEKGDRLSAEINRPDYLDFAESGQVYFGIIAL
Experimental: as §1, §2, §3, §4

[1] = system: alloantigen-induced T cell response in draining popliteal lymph node; test: alloantigen-induced T cell expansion in draining lymph node; format: in vivo, mouse (Balb/c); details: Balb/c mice, DBA-2 splenocytes in footpad; 10–20 mg/kg s.c. b.i.d.; p < 0.0001 vs vehicle
Experimental: The most promising compounds of the present series were evaluated for in vivo activity using the same model of alloantigen-induced T cell expansion in the draining lymph nodes (DLNs) that was described before. This procedure involved injection of splenocytes isolated from DBA-2 mice into the footpad of Balb/c recipients. Within three full days, this causes a significant increase in the number of cells in the draining popliteal lymph node, and this is inhibited by compounds with immunosuppressive activity.
The ability to inhibit alloantigen-induced T cell response in a draining lymph node was tested as described before. In brief, BALB/c mice (10–12 weeks old, female) received a footpad injection of 1 × 10^7 splenocytes isolated from DBA-2 mice (10–12 weeks old, male). CD154 antibody (MR-1; 20 mg/kg, day −1 and 0) or test compounds (20–60 mg/kg; b.i.d. from day −1 to 3, in 20% HPβCD) were administered s.c., and the draining popliteal lymph nodes (DLNs) were collected 3 days after the alloantigen challenge. DLN cells were counted and data are shown as mean ± SD (n = 3–4 per group).
as §3
Figure 6 Inhibition of alloantigen-induced T cell response in a draining lymph node by compounds 6, 15, 18, and 19. Mice (Balb/c) received a footpad injection of allogeneic splenocytes (isolated from DBA-2 mice) and were treated with anti-CD154 antibody (MR-1; 20 mg/kg, day −1 and 0) or compounds as shown (10–40 mg/kg, b.i.d. from day −1 to 3, s.c. in 20% HPβCD). Draining (popliteal) lymph nodes were collected three days after the alloantigen challenge and cells were counted. Data are shown as mean ± SD. Significant differences compared to vehicle-treated controls are indicated by asterisks (**** p < 0.0001; one-way ANOVA followed by Dunnett’s multiple comparison test).

T1 sequence (Q9Y275 134-285 limits assumed): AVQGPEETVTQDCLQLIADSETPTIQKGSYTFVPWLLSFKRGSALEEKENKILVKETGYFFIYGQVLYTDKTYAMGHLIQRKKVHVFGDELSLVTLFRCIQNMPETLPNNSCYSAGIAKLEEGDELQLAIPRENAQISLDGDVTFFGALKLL

O=C(Nc1ccc2cc(C(=O)Nc3cccc4cccc(S(=O)(=O)O)c34)ccc2c1)c1ccc([N+](=O)[O-])cc1 [Compound 17, 8-(6-(4-Nitrobenzamido)-2-naphthamido)naphthalene-1-sulfonic acid] gave an IC50 (BAFFR–BAFF) of 81.4 µM, an IC50 (OX40–OX40L) of 36.6 µM and an IC50 (CD40–CD154 (CD40L)) of 57.5 µM. It also gave an IC50 (TNF-R1–TNFα) of 118 µM.
For O=C(Nc1ccc(-c2ccc(C(=O)Nc3cccc4c(S(=O)(=O)O)cccc34)cc2)cc1)c1ccc([N+](=O)[O-])cc1 [Compound 7, 5-(4′-(4-Nitrobenzamido)-[1,1′-biphenyl]-4-carboxamido)naphthalene-1-sulfonic acid], the IC50 (BAFFR–BAFF) was 2.01 µM, the IC50 (OX40–OX40L) was 9.34 µM and the IC50 (CD40–CD154 (CD40L)) was 0.299 µM. The IC50 (TNF-R1–TNFα) was 555 µM.
Work on Cc1cc(NC(=O)c2ccc([N+](=O)[O-])cc2)ccc1-c1ccc(C(=O)Nc2cccc3cccc(S(=O)(=O)O)c23)cc1C [Compound 16, 8-(2,2′-Dimethyl-4′-(4-nitrobenzamido)-[1,1′-biphenyl]-4-carboxamido)naphthalene-1-sulfonic acid] yielded an IC50 (BAFFR–BAFF) of 26.7 µM, an IC50 (OX40–OX40L) of 7.28 µM and an IC50 (CD40–CD154 (CD40L)) of 44.8 µM. For the same compound, the IC50 (TNF-R1–TNFα) was 61.5 µM.
With O=C(Nc1cccc2cccc(S(=O)(=O)O)c12)c1ccc(-c2ccc(NC(=O)c3ccc([N+](=O)[O-])cc3[N+](=O)[O-])cc2)cc1 [Compound 12, 8-(4′-(2,4-Dinitrobenzamido)-[1,1′-biphenyl]-4-carboxamido)naphthalene-1-sulfonic acid] the IC50 (BAFFR–BAFF) was 38.1 µM, the IC50 (OX40–OX40L) was 10.3 µM and the IC50 (CD40–CD154 (CD40L)) was 50.5 µM. The IC50 (TNF-R1–TNFα) was 61.7 µM.
COC(=O)c1cccc2c(NC(=O)c3ccc(-c4ccc(NC(=O)c5ccc([N+](=O)[O-])cc5)cc4)cc3)cccc12 [Compound 9, Methyl 5-(4′-(4-nitrobenzamido)-[1,1′-biphenyl]-4-carboxamido)-1-naphthoate] was tested, and the IC50 (BAFFR–BAFF) was 686 µM, the IC50 (OX40–OX40L) was > 1000 µM and the IC50 (CD40–CD154 (CD40L)) was 56 µM. The IC50 (TNF-R1–TNFα) was 796 µM.
For COC(=O)c1ccc(C(=O)Nc2ccc(-c3ccc(C(=O)Nc4cccc5cccc(S(=O)(=O)O)c45)cc3)nc2)cc1 [Compound 19, 8-(4-(5-(4-(Methoxycarbonyl)benzamido)pyridin-2-yl)benzamido)naphthalene-1-sulfonic acid], the IC50 (BAFFR–BAFF) was 13.8 µM, the IC50 (OX40–OX40L) was 6.97 µM and the IC50 (CD40–CD154 (CD40L)) was 2.41 µM. The IC50 (TNF-R1–TNFα) was 182 µM and the “inhibition of alloantigen-induced T cell expansion in draining lymph node” value [1] was “inhibited the alloantigen-induced T cell response in this model in statistically significant manner”.
COC(=O)c1ccc(C(=O)Nc2ccc(-c3ccc(C(=O)Nc4cccc5cccc(S(=O)(=O)O)c45)cc3)cc2)cc1[N+](=O)[O-] [Compound 13, 8-(4′-(4-(Methoxycarbonyl)-3-nitrobenzamido)biphenyl-4-ylcarboxamido)naphthalene-1-sulfonic acid] was tested, and the IC50 (BAFFR–BAFF) was 5.27 µM, the IC50 (OX40–OX40L) was 86.2 µM and the IC50 (CD40–CD154 (CD40L)) was 0.39 µM. For the same compound, the IC50 (TNF-R1–TNFα) was 674 µM.
O=C(Nc1ccc(-c2ccc(C(=O)Nc3ccc(S(=O)(=O)O)c4cccc(S(=O)(=O)O)c34)cc2)cc1)c1ccc([N+](=O)[O-])cc1 [Compound 10, 4-(4′-(4-Nitrobenzamido)-[1,1′-biphenyl]-4-carboxamido)naphthalene-1,5-disulfonic acid] showed an IC50 (BAFFR–BAFF) of 440 µM, an IC50 (OX40–OX40L) of 135 µM and an IC50 (CD40–CD154 (CD40L)) of 68.3 µM. The IC50 (TNF-R1–TNFα) was 688 µM.
O=C(Nc1ccc(-c2ccc(C(=O)Nc3cccc4cccc(S(=O)(=O)O)c34)cc2)cc1)c1ccc(C(F)(F)F)cc1 [Compound 8, 8-(4′-(4-(trifluoromethyl)benzamido)biphenyl-4-ylcarboxamido)naphthalene-1-sulfonic acid] gave an IC50 (BAFFR–BAFF) of 42.2 µM, an IC50 (OX40–OX40L) of 10.1 µM and an IC50 (CD40–CD154 (CD40L)) of 57.8 µM. It also gave an IC50 (TNF-R1–TNFα) of 61.1 µM.
